US8426433B2, priority 2007, dated 2013)
Like-named read-outs stand apart in the source and are kept apart here.

Assays:
[1] = tested on: endogenous thrombin potential in normal donor plasma (PPP); assay: Thrombin generation test (endogenous thrombin potential) in normal donor plasma; type: biochemical; conditions: read-out: IC50 (50% reduction in endogenous thrombin potential)
Description: This method was described in detail in many papers (Hemker H C, Giesen P L, Ramjee M, Wagenvoord R, Beguin S. The thrombogram: monitoring thrombin generation in platelet-rich plasma. Thromb. Haemost., 2000; 83(4): 589-591; Hemker H C, AlDieri R, Beguin S. Thrombin generation assays: accruing clinical relevance. Curr. Opin. Hematol., 2004, 11(3):170-175; Hemker H C, Giesen P, AlDieri R, Regnault V, de Smed E, Wagenvoord R, Lecompte T, Beguin S. The calibrated automated thrombogram (CAT): a universal routine test for hyper- and hypocoagulability. Pathophysiol. Haemost. Thromb., 2002, 32(5-6):249-253). The test is used to measure the kinetics and total quantity of active thrombin generated in a plasma sample over a specified time at a standard clotting activation level in the sample. These applicants' method is suitable for measuring thrombin concentration using a slow-action fluorogenic substrate (BOC-Ile-Gly-Arg-AMC), which gives a highly fluorescent product, 7-amino-4-methylcoumarin (AMC), when broken d own by thrombin. The use of a fluorogenic, rather than chromogenic, substrate is dictated by the fact that the fluorescence level in the sample is virtually unaffected by the solid fibrin clot formed in the metering cell, but this is a qualification that restricts the application of a chromogenic substrate (Hemker H C, Giesen P, AlDieri R, Regnault V, de Smed E, Wagenvoord R, Lecompte T, Beguin S. The calibrated automated thrombogram (CAT): a universal routine test for hyper- and hypocoagulability. Pathophysiol. Haemost. Thromb., 2002, 32(5-6):249-253). On the other hand, it is common knowledge that the bulk of thrombin (about 95%) in the sample is generated after the first clot has already formed (Hemker H C, AlDieri R, Beguin S. Thrombin generation assays: accruing clinical relevance. Curr. Opin. Hematol., 2004, 11(3):170-175).
The kinetics of thrombin generation and ultimately loss in plasma after clotting activation is shown in FIG. 1, which illustrates the relationship between concentration of active thrombin in a plasma sample and time. The area under the thrombin generation time curve (in this invention, from 0 to 50 minutes of incubation) is called endogenous thrombin potential (ETP). The curve is further characterized by tmax, the time when thrombin in the sample reaches maximum concentration, Amax, the maximum thrombin concentration in the system, and tlag, the time before clotting commencement, which is conventionally the time when thrombin reaches a concentration of 5 nM.
Obviously, important clotting information is contained in the shape of thrombin concentration to time curves, as well as the integral ETP level. In particular, against the background of low factor and clotting inhibitor concentration, thrombin concentration maximums can be lower and also broader, although the total ETP might not change at all. The presence of additional thrombin inhibitors in plasma must reduce ETP and maximum attainable thrombin concentration, and increase the clotting lag and the time required for thrombin to achieve maximum concentration.
Measurements were taken as follows: 90 microliters of normal donor plasma (PPP), 0 to 20 microliters of the test substance solution, and 20 to 0 microliters of buffering solution (20 mM of HEPES, 140 mM of NaCal, pH 7.5) were deposited in the holes of a 96 hole board so that the total volume of added substance and buffer is always 20 microliters. Whereupon 20 microliters of a fluorogenic substrate solution (at 5 mM initial concentration) was added to each of the board holes, and plasma was heated for 3 to 5 minutes at 37° C. Next, 25 microliters of a clotting activator solution was added simultaneously (using a multichannel pipette) to all the holes. A thromboplastin solution prepared from a standard thromboplastin reagent diluted to 1/250th of its original concentration by the same buffer further containing 80 mM of CaCl2 to measure the prothrombin time (PT) (RENAM, Russia) was used as activator. […]

[2] = Acute toxicity, LD50; conditions: mouse, in vivo, mice
[3] = tested on: clot growth in platelet-free plasma; assay: Clot growth rate in space (light scattering) in platelet-free plasma; type: biochemical; conditions: 1 mcM of the compound in normal plasma versus plasma control, FIG. 9-11
Description: The clot growth rate in space describes the dynamics of clotting, which is a process that develops over time and across space. This method measures light scattering to determine the size of the clot at different periods of time once clotting has begun. Clotting is activated in the system by an activator precisely localized in space without stirring. The activator was alternatively either a simple glass plate having a ground edge to cause contact activation on the internal path or fibroblast-coated polyethylene terephthalate films provided on the surface with a tissue factor to activate clotting on the external path. […]
Light scattering profiles corresponding to different time moments from the start of the experiment were obtained by processing the series of recorded images. […] The clot size in each frame was determined as the distance from the activator to the clot edge assumed to be the point where light scattering was half the maximum value. […]
The last output processing stage was calculating the clot growth rate on the basis of the light scattering profiles obtained. The clot size was assessed at each point of time as the distance of a respective light scattering profile from the activator (at half-point of the maximum profile height). […] The quasi-stationary growth rate of the clot was calculated from the inclination angle of the linear portion of the curve.

[4] = tested on: endogenous thrombin potential in diluted donor platelet-free plasma; assay: ETP in plasma diluted with NaCl 0.9% plasma-substituting solution containing inhibitor; type: biochemical; conditions: 0.25-0.5 mcM in NaCl 0.9% solution; plasma diluted at a ratio of 1.5 to 4, FIG. 12
Method: Donor blood prepared on a 3.8% sodium citrate at a 9:1 ratio of blood to citrate (20 ml) was centrifuged for 15 minutes at 1,300 g. Some of the platelet-poor plasma (PPP) was centrifuged for another 10 minutes at 10,000 g to obtain a platelet-free plasma (PFP). The PFP thus produced was then used for measuring the endogenous thrombin potential.
PFP was diluted at a ratio of 1.5, 2, 3 and 4 with either transfusion-grade physiological saline (NaCl 0.9%) or with the same solution containing additionally a thrombin inhibitor HC-025s-IOC (at concentrations of 0.25, 0.5 or 1 mcM). For constant concentration of Ca^+2 to be maintained through the tests after recalcification, sodium citrate concentration was maintained constant in all plasma dilutions to be identical to the concentration in initial undiluted plasma, for which purpose the initial plasma-substituting solutions used to dilute the plasma were first mixed with 3.8% sodium citrate similarly with initial blood at a 9:1 solution to citrate ratio.
The plasma sample used in the above-described ETP measurement method was always diluted at a 1.5 ratio throughout. An opportunity must be provided to measure ETP in undiluted plasma in experiments to dilute plasmas with PSS. […] Endogenous thrombin potential was measured for each of the diluted plasmas in the presence of different concentrations of HC-025s-IOC.

[5] = Argatroban after clinical testing; cited from earlier work

SMILES	IC50 [1] [nM]	also measured
Cc1cc(OCCC[n+]2ccc(N)cc2)cc(OS(=O)(=O)c2ccccc2)c1 [HC-016s-IOC, 4-amino-1-(3-(3-methyl-5-(benzenesulfonyloxy)phenoxy)propyl)-pyridinium iodide]	~240000	–
Cc1cc(OCCSC(=N)N)cc(OS(=O)(=O)c2ccccc2)c1 [HC-020s-IOC, 2-(3-methyl-5-(benzenesulfonyloxy)phenoxy)ethyl-isothiouronium iodide]	–	LD50 ([2]; 0.9% NaCl + cremophor 20%): > 1110 mg/kg
Cc1cc(OCC[n+]2ccc(N)cc2)cc(OS(=O)(=O)c2ccccc2)c1 [HC-019s-IOC, 4-amino-1-(2-(3-methyl-5-(benzenesulfonyloxy)phenoxy)ethyl)-pyridinium iodide]	250	LD50 ([2]; 0.9% NaCl + cremophor 20%): > 278 mg/kg
Cc1cc(OCCC[n+]2ccsc2N)cc(OS(=O)(=O)c2ccccc2F)c1 [HC_030s_IOC]	~8600	–
Cc1cc(OCC[n+]2ccsc2N)cc(OS(=O)(=O)c2ccccc2Cl)c1 [HC_045s_IOC]	16000	–
Cc1cc(OCC[n+]2ccc(N)cc2)cc(OS(=O)(=O)c2ccc(Cl)cc2)c1 [HC_039s_IOC]	150	–
Cc1cc(OCC[n+]2ccc(N)cc2)cc(OS(=O)(=O)c2ccccc2S(C)(=O)=O)c1 [HC_036s_IOC]	158	–
Nc1cc[n+](CCOc2cccc(NS(=O)(=O)c3ccccc3)c2)cc1 [HC_041s_IOC]	1600	–
Cc1ccc(S(=O)(=O)Oc2cc(C)cc(OCC[n+]3ccc(N)cc3)c2)cc1 [HC_038s_IOC]	~4000	–
Cc1cc(OCC[n+]2ccc(N)nc2)cc(OS(=O)(=O)c2ccccc2)c1 [HC_047s_IOC]	2500	–
Cc1cc(OCCCSC(=N)N)cc(OS(=O)(=O)c2ccccc2F)c1 [HC_031s_IOC]	1240	–
Cc1cc(OCC[n+]2ccc(N)cc2)cc(OS(=O)(=O)c2ccccc2F)c1 [HC_037s_IOC]	~100	–
Cc1cc(OCCCSC(=N)N)cc(OS(=O)(=O)c2ccccc2)c1.I [HC-018s-IOC, 3-(3-methyl-5-(benzenesulfonyloxy)phenoxy)propyl-isothiouronium iodide]	–	LD50 ([2]; 0.9% NaCl + cremophor 20%): < 441 mg/kg
C/N=C(/N)SCCCOc1cc(C)cc(OS(=O)(=O)c2ccccc2Cl)c1 [HC_032s_IOC]	25200	–
Cc1cc(OCCC[n+]2ccc(N)cc2)cc(OS(=O)(=O)c2ccccc2F)c1 [HC_029s_IOC, 4-amino-1-(3-(3-methyl-5-(2-fluorobenzenesulfonyloxy)phenoxy)propyl)-pyridinium iodide]	27000	–
C/N=C(/N)CSCCCOc1cc(C)cc(OS(=O)(=O)c2ccccc2Cl)c1 [HC_033s_IOC]	527	–
Cc1cc(OCC[n+]2ccc(N)cc2)cc(OS(=O)(=O)c2ccccc2Cl)c1.[I-] [HC-025s-IOC, 4-amino-1-(2-(3-methyl-5-(2-chlorobenzenesulfonyloxy)phenoxy)ethyl)-pyridinium iodide]	260	Spatial clot growth dynamics (clot size versus time) [3]: inhibits clotting; ETP readings for different plasma dilutions [4]: closest thing to normal
Cc1cc(OCCCn2ccsc2=N)cc(OS(=O)(=O)c2ccccc2)c1	24800	LD50 ([2]; 0.9% NaCl): > 199 mg/kg
CC1CNc2c(cccc2S(=O)(=O)N[C@@H](CCCNC(=N)N)C(=O)N2CC[C@@H](C)C[C@@H]2C(=O)O)C1 (stereo partly drawn) [Argatroban]	–	LD50 [5]: 475 mg/kg
Cc1cc(OCCSC(=N)N)cc(OS(=O)(=O)c2ccccc2S(C)(=O)=O)c1 [HC_040s_IOC]	800	–
Cc1cc(OCCC[n+]2ccc(N)cc2)cc(OS(=O)(=O)c2ccccc2Cl)c1 [HC-023s-IOC]	40000	–
CNc1ccc(S(=O)(=O)N(C)c2ccccc2)cc1NC(=O)CC[n+]1ccc(N)cc1.[Cl-] [HC_028s_IOC]	~9000	LD50 ([2]; 0.9% NaCl + cremophor 20%): 257 ± 31 mg/kg
